Legend:
[1] = target: HDAC9 (Homo sapiens, UniProt Q9UKV0); test: in vitro HDAC inhibition assay (fluorescence); assay type: biochemical; conditions: 1 h pre-incubation; 2 μM HDAC Substrate Class 2a; read-out: IC50 (μM) HDAC9
Experimental: (§1) Briefly, all of the compounds are dissolved in DMSO. A series of dilutions of the compounds were prepared with 10% DMSO in HDAC assay buffer and 5 μl of the dilution was added to a 50 μl reaction so that the final concentration of DMSO is 1% in all of reactions. The compounds were pre-incubated in duplicate at RT for 1 hour in a mixture containing HDAC assay buffer, 5 μg BSA, HDAC enzyme (see Table 7) and a the particular HDACi. After 1 hour, the enzymatic reactions were initiated by the addition of HDAC substrate (BPS Bioscience) to a final concentration of 10 μM or 2 μM. The enzymatic reaction proceeded for 30 minutes at 37° C.
(§2) HDAC activity assays were performed in duplicates at each concentration. The fluorescent intensity data were analyzed using the computer software, Graphpad Prism. In the absence of the compound, the fluorescent intensity (Ft) in each data set was defined as 100% activity. In the absence of HDAC, the fluorescent intensity (Fb) in each data set was defined as 0% activity. The percent activity in the presence of each compound was calculated according to the following equation: % activity=(F−Fb)/(Ft−Fb), where F=the fluorescent intensity in the presence of the compound.
(§3) The values of % activity versus a series of compound concentrations were then plotted using non-linear regression analysis of Sigmoidal dose-response curve generated with the equation Y=B+(T−B)/1+10^((Log EC50-X)×Hill Slope), where Y=percent activity, B=minimum percent activity, T=maximum percent activity, X=logarithm of compound and Hill Slope=slope factor or Hill coefficient. The IC50 value was determined by the concentration causing a half-maximal percent activity.

[2] = target: T1, HDAC7 (Homo sapiens, UniProt Q8WUI4); test: in vitro HDAC inhibition assay (fluorescence); assay type: biochemical; conditions: 1 h pre-incubation; 2 μM HDAC Substrate Class 2a; read-out: IC50 (μM) HDAC7
T1 sequence (Q8WUI4 1-952): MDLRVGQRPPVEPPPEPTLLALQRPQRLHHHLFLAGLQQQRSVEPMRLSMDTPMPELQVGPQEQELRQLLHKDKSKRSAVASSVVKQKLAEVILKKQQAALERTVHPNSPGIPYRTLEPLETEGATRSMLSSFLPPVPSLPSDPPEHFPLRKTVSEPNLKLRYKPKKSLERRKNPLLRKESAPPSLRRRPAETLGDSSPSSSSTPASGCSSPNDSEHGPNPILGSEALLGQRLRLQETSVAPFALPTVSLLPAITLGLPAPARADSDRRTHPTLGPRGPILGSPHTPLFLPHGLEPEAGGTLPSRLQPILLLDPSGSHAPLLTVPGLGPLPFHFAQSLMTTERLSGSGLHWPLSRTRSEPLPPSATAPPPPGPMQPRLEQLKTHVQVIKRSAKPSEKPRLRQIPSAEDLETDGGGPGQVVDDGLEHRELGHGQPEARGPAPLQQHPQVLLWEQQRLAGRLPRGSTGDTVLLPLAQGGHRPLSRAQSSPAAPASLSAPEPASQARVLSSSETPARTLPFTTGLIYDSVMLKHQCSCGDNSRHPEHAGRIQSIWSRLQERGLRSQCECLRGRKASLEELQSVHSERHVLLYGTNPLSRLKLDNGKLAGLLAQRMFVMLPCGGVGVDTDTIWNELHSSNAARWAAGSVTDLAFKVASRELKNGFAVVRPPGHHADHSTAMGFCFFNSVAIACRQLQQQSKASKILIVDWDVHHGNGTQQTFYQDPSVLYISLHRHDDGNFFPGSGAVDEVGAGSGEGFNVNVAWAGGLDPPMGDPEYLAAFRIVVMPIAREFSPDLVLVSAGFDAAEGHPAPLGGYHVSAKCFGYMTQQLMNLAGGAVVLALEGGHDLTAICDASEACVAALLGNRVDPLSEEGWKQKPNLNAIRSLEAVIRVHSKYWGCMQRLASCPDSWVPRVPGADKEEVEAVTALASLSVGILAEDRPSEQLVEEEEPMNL
Experimental: as §1, §2, §3

[3] = target: T2, HDAC 6 (Homo sapiens, UniProt Q9UBN7); conditions: descriptive statement; cited from earlier work
T2 sequence (Q9UBN7 1-1215): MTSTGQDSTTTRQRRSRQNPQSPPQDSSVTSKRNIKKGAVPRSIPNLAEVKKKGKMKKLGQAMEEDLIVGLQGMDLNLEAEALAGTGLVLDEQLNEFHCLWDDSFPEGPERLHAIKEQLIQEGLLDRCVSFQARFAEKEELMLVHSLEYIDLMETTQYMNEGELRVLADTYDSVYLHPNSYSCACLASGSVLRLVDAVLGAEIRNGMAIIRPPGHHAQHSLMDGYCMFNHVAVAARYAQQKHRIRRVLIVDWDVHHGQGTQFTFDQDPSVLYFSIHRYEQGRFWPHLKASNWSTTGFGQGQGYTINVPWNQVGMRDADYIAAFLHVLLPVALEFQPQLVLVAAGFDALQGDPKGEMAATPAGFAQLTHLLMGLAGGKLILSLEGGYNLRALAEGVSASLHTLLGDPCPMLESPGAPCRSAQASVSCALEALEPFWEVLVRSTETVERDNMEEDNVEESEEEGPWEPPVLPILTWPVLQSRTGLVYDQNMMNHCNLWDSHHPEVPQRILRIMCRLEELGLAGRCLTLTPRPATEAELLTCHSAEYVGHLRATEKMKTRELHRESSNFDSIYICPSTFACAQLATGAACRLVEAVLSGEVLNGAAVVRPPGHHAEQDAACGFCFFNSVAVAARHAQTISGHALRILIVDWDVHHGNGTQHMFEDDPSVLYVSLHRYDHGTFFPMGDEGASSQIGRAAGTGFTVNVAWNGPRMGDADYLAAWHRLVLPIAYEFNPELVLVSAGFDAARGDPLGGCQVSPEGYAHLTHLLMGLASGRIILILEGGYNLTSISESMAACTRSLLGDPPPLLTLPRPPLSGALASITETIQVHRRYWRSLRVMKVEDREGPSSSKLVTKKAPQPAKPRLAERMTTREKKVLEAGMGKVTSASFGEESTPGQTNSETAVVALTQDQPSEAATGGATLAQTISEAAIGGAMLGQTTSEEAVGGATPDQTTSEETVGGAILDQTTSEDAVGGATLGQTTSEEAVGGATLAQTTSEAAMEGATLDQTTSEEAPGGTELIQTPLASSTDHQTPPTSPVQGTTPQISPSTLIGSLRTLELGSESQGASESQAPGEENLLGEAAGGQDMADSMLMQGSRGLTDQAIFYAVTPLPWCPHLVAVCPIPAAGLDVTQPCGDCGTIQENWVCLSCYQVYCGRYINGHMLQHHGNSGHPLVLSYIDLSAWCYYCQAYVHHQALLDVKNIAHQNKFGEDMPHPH

HDAC9, sequence (Q9UKV0 whole entry): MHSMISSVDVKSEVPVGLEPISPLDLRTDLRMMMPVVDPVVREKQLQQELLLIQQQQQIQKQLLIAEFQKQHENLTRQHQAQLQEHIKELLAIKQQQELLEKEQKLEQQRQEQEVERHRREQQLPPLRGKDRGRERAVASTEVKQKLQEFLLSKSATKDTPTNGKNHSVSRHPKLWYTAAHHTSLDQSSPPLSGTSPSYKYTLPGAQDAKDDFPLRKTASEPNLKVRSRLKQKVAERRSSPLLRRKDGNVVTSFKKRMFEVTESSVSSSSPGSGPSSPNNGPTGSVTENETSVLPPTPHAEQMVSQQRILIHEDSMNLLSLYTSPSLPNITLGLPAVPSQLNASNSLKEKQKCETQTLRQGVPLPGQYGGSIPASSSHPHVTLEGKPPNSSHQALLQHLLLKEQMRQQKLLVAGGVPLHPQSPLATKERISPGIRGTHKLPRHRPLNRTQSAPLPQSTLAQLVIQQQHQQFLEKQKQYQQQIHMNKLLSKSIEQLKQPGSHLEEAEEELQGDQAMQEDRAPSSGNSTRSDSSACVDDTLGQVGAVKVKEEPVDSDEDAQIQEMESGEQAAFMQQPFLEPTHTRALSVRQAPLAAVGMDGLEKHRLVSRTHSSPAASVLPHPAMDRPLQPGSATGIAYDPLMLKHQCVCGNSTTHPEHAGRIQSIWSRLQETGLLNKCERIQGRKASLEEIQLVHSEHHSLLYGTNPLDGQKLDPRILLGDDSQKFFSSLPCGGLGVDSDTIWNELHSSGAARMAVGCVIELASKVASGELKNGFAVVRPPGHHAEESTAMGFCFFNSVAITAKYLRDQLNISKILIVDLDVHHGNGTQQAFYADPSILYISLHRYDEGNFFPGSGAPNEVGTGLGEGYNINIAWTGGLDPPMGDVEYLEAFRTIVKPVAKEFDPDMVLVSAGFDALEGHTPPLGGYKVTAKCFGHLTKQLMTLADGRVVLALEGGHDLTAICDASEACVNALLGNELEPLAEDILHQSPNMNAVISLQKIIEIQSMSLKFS

O=C(NO)c1cnc(N2C[C@@H]3[C@H](C2)[C@H]3NCc2ccc3cc(F)ccc3n2)nc1 [Nanatinostat, 2-((1R,5S,6s)-6-(((6-fluoroquinolin-2-yl)methyl)amino)-3-azabicyclo[3.1.0]hexan-3-yl)-N-hydroxypyrimidine-5-carboxamide]
IC50 [1]: 0.44 µM
IC50 [2]: 1.6 µM
Activity against HDAC 6 [3]: not HDAC 6

— US10953011B2, “Methods of treating virally associated cancers with histone deacetylase inhibitors” (priority 2019, dated 2021)
